Measurements reported in patent US10030027B2, “Soluble guanylate cyclase stimulators” (MERCK SHARP & DOHME CORP., priority 2015, dated 2018).

Assays:
[1] = target: human recombinant sGC enzyme (Homo sapiens (Human), UniProt Q02108+Q02153); test: Size Exclusion Chromatography (SEC) competition binding assay using [3H] Ex-77B as the radioligand; details: [3H] Ex-77B radioligand, 24 hours at 37° C.
How it was run: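 Recombinant human sGC binding measured by competition against tritiated Ex-77B radioligand, with non-specific binding defined by 1 μM unlabeled Ex-77B.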

[2] = target: sGC α1/β1 heterodimer (Homo sapiens (Human), UniProt Q02108+Q02153); test: Cell-based sGC functional assay (cyclic GMP assay for sGC activator: CASA assay); details: CHO-K1/sGC cells; for Emax: CHO-K1, activity expressed as percentage of compound A (standard), read-out: % Activation; for EC50: inflection point, 4P fit, read-out: IP
How it was run: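 CHO-K1 cells stably expressing sGC α1/β1 were pre-incubated with or without 1 μM DETA-NO (30 min, 25 °C), then exposed to compounds for 1 hr at 37 °C with 0.5 mM IBMX. Intracellular cGMP was read by HTRF and expressed as a percentage of a reference heme-dependent activator's maximum.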

Row | Ki [1] [nM] | Emax [2] [%] | EC50 [2] [nM] | Compound
1 | 1.7 | 79 | 445 | CC1(c2cn(CC3(C(=O)O)CC3)nn2)C(=O)Nc2nc(-c3nn(CCC(F)(F)C(F)(F)F)c4cc(Cl)ccc34)nc(N)c21 (stereo not drawn) [Example 32B, 1-[(4-{4-amino-2-[6-chloro-1-(3,3,4,4,4-pentafluorobutyl)-1H-indazol-3-yl]-5-methyl-6-oxo-6,7-dihydro-5H-pyrrolo[2,3-d]pyrimidin-5-yl}-1H-1,2,3-triazol-1-yl)methyl]cyclopropanecarboxylic acid]
2 | 1.12 | 102 | 2790 | CCCCn1nc(-c2nc(N)c3c(n2)NC(=O)C3(C)c2cn(CC(=O)O)nn2)c2ccc(Cl)cc21 (stereo not drawn) [Example 35B, 2-{4-[4-amino-2-(1-butyl-6-chloro-1H-indazol-3-yl)-5-methyl-6-oxo-6,7-dihydro-5H-pyrrolo[2,3-d]pyrimidin-5-yl]-1H-1,2,3-triazol-1-yl}acetic acid]
3 | 0.908 | 105 | 916 | CCCCn1nc(-c2nc(N)c3c(n2)NC(=O)C3(C)c2cn(CCC(=O)O)nn2)c2ccc(Cl)cc21 (stereo not drawn) [Example 36B, 3-{4-[4-amino-2-(1-butyl-6-chloro-1H-indazol-3-yl)-5-methyl-6-oxo-6,7-dihydro-5H-pyrrolo[2,3-d]pyrimidin-5-yl]-1H-1,2,3-triazol-1-yl}propanoic acid]
4 | 0.484 | 96 | 762 | CCCCn1nc(-c2nc(N)c3c(n2)NC(=O)C3(C)c2ccc(CC(C)(C)C(=O)O)cc2)c2ccc(Cl)cc21 (stereo not drawn) [Example 37B, 3-{4-[4-amino-2-(1-butyl-6-chloro-1H-indazol-3-yl)-5-methyl-6-oxo-6,7-dihydro-5H-pyrrolo[2,3-d]pyrimidin-5-yl]phenyl}-2,2-dimethylpropanoic acid]
5 | 3.65 | 82 | 1090 | COCCn1nc(-c2nc(N)c3c(n2)NC(=O)C3(C)c2cccc(CC(C)(C)C(=O)O)c2)c2ccc(Cl)cc21 (stereo not drawn) [Example 39B, 3-(3-{4-amino-2-[6-chloro-1-(2-methoxyethyl)-1H-indazol-3-yl]-5-methyl-6-oxo-6,7-dihydro-5H-pyrrolo[2,3-d]pyrimidin-5-yl}phenyl)-2,2-dimethylpropanoic acid]
6 | 0.717 | 85 | 779 | C[C@@]1(c2ccc(CCC(=O)O)cc2)C(=O)Nc2nc(-c3nn(CCCC(F)(F)F)c4cc(Cl)ccc34)nc(N)c21 [Example 41B, (S)-3-(4-{4-amino-2-[6-chloro-1-(4,4,4-trifluorobutyl)-1H-indazol-3-yl]-5-methyl-6-oxo-6,7-dihydro-5H-pyrrolo[2,3-d]pyrimidin-5-yl}phenyl)propanoic acid]
7 | 0.951 | 84 | 1050 | CC(C)(Cc1ccc(C2(C)C(=O)Nc3nc(-c4nn(CCCC(F)(F)F)c5cc(Cl)ccc45)nc(N)c32)cc1)C(=O)O (stereo not drawn) [Example 42B, 3-(4-{4-amino-2-[6-chloro-1-(4,4,4-trifluorobutyl)-1H-indazol-3-yl]-5-methyl-6-oxo-6,7-dihydro-5H-pyrrolo[2,3-d]pyrimidin-5-yl}phenyl)-2,2-dimethylpropanoic acid]
8 | 0.096 | 105 | 142 | CCCCCn1nc(-c2nc(N)c3c(n2)NC(=O)[C@@]3(C)c2ccc(CCC(=O)O)cc2)c2ccc(Cl)cc21 [Example 43B, (S)-3-{4-[4-amino-2-(6-chloro-1-pentyl-1H-indazol-3-yl)-5-methyl-6-oxo-6,7-dihydro-5H-pyrrolo[2,3-d]pyrimidin-5-yl]phenyl}propanoic acid]
9 | 0.102 | 128 | 167 | C[C@@]1(c2ccc(CCC(=O)O)cc2)C(=O)Nc2nc(-c3nn(Cc4ccccc4F)c4cc(F)ccc34)nc(N)c21 [Example 60B, (S)-3-(4-{4-amino-2-[6-fluoro-1-(2-fluorobenzyl)-1H-indazol-3-yl]-5-methyl-6-oxo-6,7-dihydro-5H-pyrrolo[2,3-d]pyrimidin-5-yl}phenyl)propanoic acid]
10 | 0.066 | 109 | 299 | CC1(c2cccc(CCC(=O)O)c2)C(=O)Nc2nc(-c3nn(Cc4ccccc4F)c4cc(F)ccc34)nc(N)c21 (stereo not drawn) [Example 61A, 3-(3-{4-amino-2-[6-fluoro-1-(2-fluorobenzyl)-1H-indazol-3-yl]-5-methyl-6-oxo-6,7-dihydro-5H-pyrrolo[2,3-d]pyrimidin-5-yl}phenyl)propanoic acid]
11 | 0.022 | 148 | 141 | CC(C)(Cc1csc([C@]2(C)C(=O)Nc3nc(-c4nn(Cc5ccccc5F)c5cc(F)ccc45)nc(N)c32)n1)C(=O)O [Example 62A, (S)-3-(2-{4-amino-2-[6-fluoro-1-(2-fluorobenzyl)-1H-indazol-3-yl]-5-methyl-6-oxo-6,7-dihydro-5H-pyrrolo[2,3-d]pyrimidin-5-yl}-1,3-thiazol-4-yl)-2,2-dimethylpropanoic acid]
12 | 0.495 | 107 | 238 | Cc1cccc(Cn2nc(-c3nc(N)c4c(n3)NC(=O)[C@@]4(C)c3ccc(CCC(=O)O)cc3)c3ccc(Cl)cc32)c1 [Example 66B, (S)-3-(4-{4-amino-2-[6-chloro-1-(3-methylbenzyl)-1H-indazol-3-yl]-5-methyl-6-oxo-6,7-dihydro-5H-pyrrolo[2,3-d]pyrimidin-5-yl}phenyl)propanoic acid]
13 | 0.154 | 115 | 384 | Cc1ccc(Cn2nc(-c3nc(N)c4c(n3)NC(=O)[C@@]4(C)c3ccc(CCC(=O)O)cc3)c3ccc(Cl)cc32)cc1 [Example 67B, (S)-3-(4-{4-amino-2-[6-chloro-1-(4-methylbenzyl)-1H-indazol-3-yl]-5-methyl-6-oxo-6,7-dihydro-5H-pyrrolo[2,3-d]pyrimidin-5-yl}phenyl)propanoic acid]
14 | 3.1 | 109 | 568 | Cc1ccccc1Cn1nc(-c2nc(N)c3c(n2)NC(=O)[C@@]3(C)c2ccc(CCC(=O)O)cc2)c2ccc(Cl)cc21 [Example 68B, (S)-3-(4-{4-amino-2-[6-chloro-1-(2-methylbenzyl)-1H-indazol-3-yl]-5-methyl-6-oxo-6,7-dihydro-5H-pyrrolo[2,3-d]pyrimidin-5-yl}phenyl)propanoic acid]
15 | 0.101 | 139 | 289 | C[C@@]1(c2ccc(CCC(=O)O)cc2)C(=O)Nc2nc(-c3nn(Cc4cccc(F)c4)c4cc(Cl)ccc34)nc(N)c21 [Example 69B, (S)-3-(4-{4-amino-2-[6-chloro-1-(3-fluorobenzyl)-1H-indazol-3-yl]-5-methyl-6-oxo-6,7-dihydro-5H-pyrrolo[2,3-d]pyrimidin-5-yl}phenyl)propanoic acid]
16 | 1.74 | 80 | 1420 | Cc1nc([C@]2(C)C(=O)Nc3nc(-c4nn(CCC(F)(F)C(F)(F)F)c5ncccc45)nc(N)c32)sc1CC(=O)O [Example 83B, (S)-(2-{4-amino-5-methyl-6-oxo-2-[1-(3,3,4,4,4-pentafluorobutyl)-1H-pyrazolo[3,4-b]pyridin-3-yl]-6,7-dihydro-5H-pyrrolo[2,3-d]pyrimidin-5-yl}-4-methyl-1,3-thiazol-5-yl)acetic acid]
17 | 1.5 | 130 | 700 | CC(C)(Cc1csc(C2(C)C(=O)Nc3nc(-c4nn(CCC(F)(F)F)c5ncc(F)cc45)nc(N)c32)n1)C(=O)O (stereo not drawn) [Example 85A, 3-(2-{4-amino-2-[5-fluoro-1-(3,3,3-trifluoropropyl)-1H-pyrazolo[3,4-b]pyridin-3-yl]-5-methyl-6-oxo-6,7-dihydro-5H-pyrrolo[2,3-d]pyrimidin-5-yl}-1,3-thiazol-4-yl)-2,2-dimethylpropanoic acid]
18 | 0.785 | 97 | 547 | CC(C)(Cc1csc([C@]2(C)C(=O)Nc3nc(-c4nn(CCCC(F)(F)F)c5ncccc45)nc(N)c32)n1)C(=O)O [Example 87B, (S)-3-(2-{4-amino-5-methyl-6-oxo-2-[1-(4,4,4-trifluorobutyl)-1H-pyrazolo[3,4-b]pyridin-3-yl]-6,7-dihydro-5H-pyrrolo[2,3-d]pyrimidin-5-yl}-1,3-thiazol-4-yl)-2,2-dimethylpropanoic acid]
19 | 0.848 | 88 | 1250 | C[C@@]1(c2nc(CCC(=O)O)cs2)C(=O)Nc2nc(-c3nn(CCCC(F)(F)F)c4ncccc34)nc(N)c21 [Example 88B, (S)-3-(2-{4-amino-5-methyl-6-oxo-2-[1-(4,4,4-trifluorobutyl)-1H-pyrazolo[3,4-b]pyridin-3-yl]-6,7-dihydro-5H-pyrrolo[2,3-d]pyrimidin-5-yl}-1,3-thiazol-4-yl)propanoic acid]
20 | 0.18 | 123 | 132 | CC(C)(Cc1csc([C@]2(C)C(=O)Nc3nc(-c4nn(Cc5ccccc5F)c5ncc(F)cc45)nc(N)c32)n1)C(=O)O [Example 91B, (S)-3-(2-{4-amino-2-[5-fluoro-1-(2-fluorobenzyl)-1H-pyrazolo[3,4-b]pyridin-3-yl]-5-methyl-6-oxo-6,7-dihydro-5H-pyrrolo[2,3-d]pyrimidin-5-yl}-1,3-thiazol-4-yl)-2,2-dimethylpropanoic acid]
21 | 0.602 | 63 | 575 | CC1(c2nc(-c3cccc(C(=O)O)c3)cs2)C(=O)Nc2nc(-c3nn(CCC(F)(F)C(F)(F)F)c4cc(Cl)ccc34)nc(N)c21 (stereo not drawn) [Example 93A, 3-(2-{4-amino-2-[6-chloro-1-(3,3,4,4,4-pentafluorobutyl)-1H-indazol-3-yl]-5-methyl-6-oxo-6,7-dihydro-5H-pyrrolo[2,3-d]pyrimidin-5-yl}-1,3-thiazol-4-yl)benzoic acid]
